# What was measured:
# Format in all cases: functional, cell-based
# [1] = system: HCT-116; test: Cytotoxic activity in human HCT116 cells assessed as reduction in cell viability
# [2] = system: A549; test: Cytotoxic activity in human A549 cells assessed as reduction in cell viability
# [3] = system: MCF7; test: Cytotoxic activity in human MCF7 cells assessed as reduction in cell viability
structure (smiles),measurement,setting,value
C=C(C)[C@@H]1CC[C@]2(C(=O)O)CC[C@]3(C)[C@H](CC[C@@H]4[C@@]5(C)CC[C@H](OC(C)=O)C(C)(C)[C@@H]5CC[C@]43C)[C@@H]12,IC50,[1],9.6 µM
C=C(C)[C@@H]1CC[C@]2(C(=O)OCc3cn(-c4cccc(C(=O)O)c4)nn3)CC[C@]3(C)[C@H](CC[C@@H]4[C@@]5(C)CCC(=O)C(C)(C)[C@@H]5CC[C@]43C)[C@@H]12,IC50,[1],4 µM
C=C(C)[C@@H]1CC[C@]2(C(=O)OCc3cn(-c4cccc(O)c4)nn3)CC[C@]3(C)[C@H](CC[C@@H]4[C@@]5(C)CCC(=O)C(C)(C)[C@@H]5CC[C@]43C)[C@@H]12,IC50,[2],3.7 µM
C=C(C)[C@@H]1CC[C@]2(C(=O)OCc3cn(-c4ccc5c(c4)OCO5)nn3)CC[C@]3(C)[C@H](CC[C@@H]4[C@@]5(C)CCC(=O)C(C)(C)[C@@H]5CC[C@]43C)[C@@H]12,IC50,[2],5 µM
C=C(C)[C@@H]1CC[C@]2(C(=O)O)CC[C@]3(C)[C@H](CC[C@@H]4[C@@]5(C)CC/C(=N/Nc6ccc([N+](=O)[O-])cc6[N+](=O)[O-])C(C)(C)[C@@H]5CC[C@]43C)[C@@H]12,IC50,[3],8.2 µM
C=C(C)[C@@H]1CC[C@]2(C(=O)OCc3cn(-c4ccc(O)c(C)c4)nn3)CC[C@]3(C)[C@H](CC[C@@H]4[C@@]5(C)CCC(=O)C(C)(C)[C@@H]5CC[C@]43C)[C@@H]12,IC50,[1],3.5 µM
C=C(C)[C@@H]1CC[C@]2(C(=O)O)CC[C@]3(C)[C@H](CC[C@@H]4[C@@]5(C)CC[C@H](C#CCN6CCCC6)C(C)(C)[C@@H]5CC[C@]43C)[C@@H]12,IC50,[3],5.5 µM

# Reference: ChEMBL document CHEMBL4376808, “Triphenylphosphonium Analogues of Betulin and Betulinic Acid with Biological Activity: A Comprehensive Review” (J Nat Prod, 2019)
